This passage reports EC50 and IC50 results from patent publication US11667663B2, “Cyclic dinucleotides as anticancer agents” (BRISTOL-MYERS SQUIBB COMPANY, priority 2017, dated 2023).

Read-outs that look alike come from different tables or passages of the source.

For one assay, the system named is NF-κB pathway. Briefly: STING THP1 reporter assay, NF-κB pathway (SEAP). The assay is classed as cell-based. The conditions noted are these: THP1-Dual cells, 10% human plasma, SEAP readout, 100% = 100 μM cGAMP, read-out: THP1 Reporter Assays EC50 NFkB. The source says: (§1) STING THP1 Reporter Assay Protocol
(§2) THP1-Dual™ cells were derived from the human THP-1 monocyte cell line by stable integration of two inducible reporter constructs. To this end, THP1-Dual™ cells allow the simultaneous study of the NF-κB pathway, by monitoring the activity of SEAP, and the IRF pathway by assessing the activity of a secreted luciferase (Lucia). Both reporter proteins are readily measurable in the cell culture supernatant when using QUANTI-Blue™, a SEAP detection reagent, and QUANTI-Luc™, a luciferase detection reagent.
(§3) THP1-Dual™ cells induce the activation of NF-κB in response to STING agonists. They also trigger the IRF pathway upon stimulation with STING agonists, such as cGAMP. Here, the THP-1-Dual cells were used to assess STING binders for function on the cellular level.
(§4) Serial dilutions of compounds in DMSO were added to low volume 384 well plates at 100 nl/well using an ECHO acoustic dispenser (Labcyte, model 550) to achieve final starting concentration of 100 μM in cell suspension. THP-1 Dual™ STING reporter cells (Invivogen, Dual cells cat #THPD-nfis) were added to the plates with compounds at 15,000 cells in 10 μL per well in RPMI media (Gibco, cat #11875) containing 10% human plasma in a low volume 384-well black wall clear bottom tissue culture plate (Corning, cat #3542) for SEAP assay and low volume solid white plate (Corning, cat #3826) for luciferase assay. One column of the plate was reserved for treatment with cGAMP at 100 μM for 100% activation calculation and one column for no treatment (DMSO only) for baseline activation. Plates were then incubated in 37 OC incubator at 5% CO2 for 20 hours.
(§5) In the SEAP assay, 5 μl of 2× QuantiBlue (Invivogen, cat #Rep-qb2) is added to 384 well black plates seeded with THP1 cells and incubated at 37° C. for 2 hours. Plates were read on the Envision (Perkin Elmer) at 620 nm wavelength (OD620). In the luciferase assay, 5 μl of Quantiluc (Invivogen, Rep-qlc2) is added to white 384 well plates seeded with THP1 cells and read at 5 minutes on the Envision (Perkin Elmer) using a luminescence protocol (RLU). For both cell lines, 100% activation was determined by value (RLU) of THP-1 Dual STING cells stimulated with 100 μM cGAMP (Invivogen, cat #TLRL-NACGA23-5).
Background: A reporter such as luciferase makes a cellular process visible.

Assay [1] has as its target T1, STING WT: His-TVMV-S-hSTING(155-341)-H232R (Homo sapiens, UniProt Q86WV6, H232R).
T1 construct: STING WT: His-TVMV-S-hSTING(155-341)-H232R
Briefly: STING HTRF competition binding assay, STING WT. The conditions noted are these: 20 nM His-tagged STING cytoplasmic domain WT, 200 nM fluorescein-labeled cGAMP analog probe, one hour; read-out: HTRF Binding Assays IC50 WT. The protocol:
(§6) Sting HTRF Binding Assays
(§7) A time resolved FRET-based competition binding assay was used to assess test article binding to STING WT and STING AQ. His-tagged STING cytoplasmic domain (WT or AQ) at a concentration of 20 nM was incubated with 2.5 nM Tb-labeled anti-His antibody, test compound, and fluorescein-labeled cGAMP analog probe (BioLog cat. no. C195) at a concentration of 200 nM (STING WT) or 40 nM (STING AQ) in PBS containing 0.005% Tween-20 and 0.1% BSA for one hour. Fluorescence at 495 nm and 520 nm was measured using an EnVision microplate reader to quantify FRET between Tb-labeled anti-His antibody and fluorescein-labeled probe. Background was defined as the signal obtained in the absence of STING protein, and background subtracted FRET ratios were normalized to the maximum signal obtained in the absence of test compound. These values were converted to a percent inhibition. Percent inhibition was determined for test compounds at 11 concentrations. The IC50, defined as the concentration of competing test compound needed to reduce specific binding of the probe by 50%, was calculated using the 4 parameter logistic equation to fit the data
Background: TR-FRET usually uses a lanthanide donor and a delayed reading to cut background.

The test system of another assay is IRF pathway. Briefly: STING THP1 reporter assay, IRF pathway (Lucia luciferase). It is filed as cell-based. The conditions noted are these: THP1-Dual cells, 10% human plasma, luciferase readout, 100% = 100 μM cGAMP, read-out: THP1 Reporter Assays EC50 IRF3.
Text: as §1, §2, §3, §4, §5

Assay [2] has as its target T2, STING AQ: His-TVMV-S-hSTING(155-341)-G230A-R293Q (Homo sapiens, UniProt Q86WV6, G230A/H232R/R293Q).
T2 construct: STING AQ: His-TVMV-S-hSTING(155-341)-G230A-R293Q
Briefly: STING HTRF competition binding assay, STING AQ. The conditions noted are these: 20 nM His-tagged STING cytoplasmic domain AQ, 40 nM fluorescein-labeled cGAMP analog probe, one hour; read-out: HTRF Binding Assays IC50 AQ. The protocol:
as §6, §7

T1 sequence (Q86WV6 with tags, fused parts or gaps H232R): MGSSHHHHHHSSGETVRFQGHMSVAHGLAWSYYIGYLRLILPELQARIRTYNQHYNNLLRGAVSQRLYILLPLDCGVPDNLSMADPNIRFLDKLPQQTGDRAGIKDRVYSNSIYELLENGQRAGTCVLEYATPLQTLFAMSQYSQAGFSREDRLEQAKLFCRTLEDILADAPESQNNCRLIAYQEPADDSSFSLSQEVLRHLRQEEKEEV
T2 sequence (Q86WV6 with tags, fused parts or gaps G230A/H232R/R293Q): as the sequence (Q86WV6 with tags, fused parts or gaps H232R) above, with G99A, R162Q counted along it

For the compound `NC(=O)c1cc([C@@H]2O[C@@H]3COP(=O)(S)O[C@H]4[C@@H](F)[C@H](n5cnc6c(N)ncnc65)O[C@@H]4COP(=O)(S)O[C@@H]2[C@@H]3O)[nH]n1` (single isomer, unassigned) [Example 1-1], the EC50 with NF-κB pathway (20 hours) and with IRF pathway (20 hours) was more than 100000 nM each time. In addition, the values for the 50% inhibitory concentration (IC50) in assay [1] and in assay [2] were 2400 nM and 90 nM, respectively.
In the case of `NC(=O)c1cc([C@@H]2O[C@@H]3COP(=O)(S)O[C@H]4[C@@H](F)[C@H](n5cnc6c(N)ncnc65)O[C@@H]4COP(=O)(S)O[C@@H]2[C@@H]3O)[nH]n1` (single isomer, unassigned) [Example 1-2], the concentration for a half-maximal effect (EC50) with NF-κB pathway (20 hours) and in the assay with IRF pathway (20 hours) was more than 100000 nM in each case. Besides, the half-maximal inhibitory concentration (IC50) was determined as 910 nM in assay [1] and 30 nM in assay [2].
With `NC(=O)c1cc([C@@H]2O[C@@H]3COP(=O)(S)O[C@H]4[C@@H](F)[C@H](n5cnc6c(N)ncnc65)O[C@@H]4COP(=O)(S)O[C@@H]2[C@@H]3O)[nH]n1` (single isomer, unassigned) [Example 1-3], the values for the 50% effective concentration (EC50) in the assay with NF-κB pathway (20 hours) and in the assay with IRF pathway (20 hours) were 6800 nM and 4000 nM, respectively. The values for the half-maximal inhibitory concentration (IC50) in assay [1] and in assay [2] were 50 nM and 10 nM, respectively.
In the case of `NC(=O)c1cc([C@@H]2O[C@@H]3COP(O)(=S)O[C@H]4[C@@H](F)[C@H](n5cnc6c(N)ncnc65)O[C@@H]4COP(O)(=S)O[C@@H]2[C@@H]3O)[nH]n1` (stereo partly shown) [Example 1-4], the EC50 in the assay with NF-κB pathway (Homo sapiens, THP-1, 20 h) is more than 100000 nM; in the assay on IRF pathway (Homo sapiens, THP-1, 20 h), more than 100000 nM. The values for the half-inhibitory concentration (IC50) in assay [1] and in assay [2] were 680 nM and 40 nM, respectively.

Broadly, the EC50 is the concentration giving half of the maximal effect. In general, IC50 refers to the concentration needed to halve the response being measured.
